# PubChem BioAssay (NCI)
#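 All cell lines were grown in 96-well plates and treated with compound for 48 hours. Abbreviation: GI50, concentration required for 50% inhibition of growth. The concentration for full growth arrest is given as TGI.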
# Key:
# Assay in all cases: NCI tumour cell line growth inhibition, 48 h
# SK-MEL-2 melanoma = test system: SK-MEL-2 melanoma
# OVCAR-4 ovarian = test system: OVCAR-4 ovarian
# EKVX NSCLC = test system: EKVX NSCLC
# UACC-62 melanoma = test system: UACC-62 melanoma
# HCT-15 colon = test system: HCT-15 colon
# MOLT-4 leukemia = test system: MOLT-4 leukemia
# IGROV1 ovarian = test system: IGROV1 ovarian
# MDA-MB-468 breast = test system: MDA-MB-468 breast
# T-47D breast = test system: T-47D breast
# SK-MEL-5 melanoma = test system: SK-MEL-5 melanoma
# SK-MEL-28 melanoma = test system: SK-MEL-28 melanoma
# BT-549 breast = test system: BT-549 breast
# MDA-MB-435 = test system: MDA-MB-435
# HT29 colon = test system: HT29 colon
# SNB-75 CNS = test system: SNB-75 CNS
# K-562 leukemia = test system: K-562 leukemia
# MDA-MB-231 breast = test system: MDA-MB-231 breast
# CAKI-1 renal = test system: CAKI-1 renal
# TK-10 renal = test system: TK-10 renal
# SK-OV-3 ovarian = test system: SK-OV-3 ovarian
# NCI/ADR-RES ovarian = test system: NCI/ADR-RES ovarian
# OVCAR-3 ovarian = test system: OVCAR-3 ovarian
# HL-60(TB) leukemia = test system: HL-60(TB) leukemia
# M14 melanoma = test system: M14 melanoma
# SW-620 colon = test system: SW-620 colon
# RXF 393 renal = test system: RXF 393 renal
# KM12 colon = test system: KM12 colon
# SR leukemia = test system: SR leukemia
# HOP-92 NSCLC = test system: HOP-92 NSCLC
smiles,measurement,setting,value
FC(F)(F)c1cc2c(Cl)ncnc2n1CCN1CCOCC1,GI50,SK-MEL-2 melanoma,17.4 µM
same,TGI,SK-MEL-2 melanoma,33.4 µM
same,GI50,OVCAR-4 ovarian,33 µM
same,TGI,OVCAR-4 ovarian,> 100 µM
same,GI50,EKVX NSCLC,17 µM
same,TGI,EKVX NSCLC,94.6 µM
same,GI50,UACC-62 melanoma,10.8 µM
same,TGI,UACC-62 melanoma,32.5 µM
same,GI50,HCT-15 colon,3.3 µM
same,TGI,HCT-15 colon,17.7 µM
same,GI50,MOLT-4 leukemia,5.71 µM
same,TGI,MOLT-4 leukemia,29 µM
same,GI50,IGROV1 ovarian,2.54 µM
same,TGI,IGROV1 ovarian,7.67 µM
same,GI50,MDA-MB-468 breast,2.73 µM
same,TGI,MDA-MB-468 breast,10.4 µM
same,GI50,T-47D breast,38.8 µM
same,TGI,T-47D breast,> 100 µM
same,GI50,SK-MEL-5 melanoma,13 µM
same,TGI,SK-MEL-5 melanoma,29.7 µM
same,GI50,SK-MEL-28 melanoma,13.6 µM
same,TGI,SK-MEL-28 melanoma,32.9 µM
same,GI50,BT-549 breast,13.6 µM
same,TGI,BT-549 breast,28.2 µM
same,GI50,MDA-MB-435,13.2 µM
same,TGI,MDA-MB-435,29.3 µM
same,GI50,HT29 colon,27.3 µM
same,TGI,HT29 colon,> 100 µM
same,GI50,SNB-75 CNS,10.1 µM
same,TGI,SNB-75 CNS,22.4 µM
same,GI50,K-562 leukemia,3.05 µM
same,TGI,K-562 leukemia,18.7 µM
same,GI50,MDA-MB-231 breast,4.36 µM
same,TGI,MDA-MB-231 breast,18.3 µM
same,GI50,CAKI-1 renal,27.6 µM
same,TGI,CAKI-1 renal,> 100 µM
same,GI50,TK-10 renal,> 100 µM
same,TGI,TK-10 renal,> 100 µM
same,GI50,SK-OV-3 ovarian,> 100 µM
same,TGI,SK-OV-3 ovarian,> 100 µM
same,GI50,NCI/ADR-RES ovarian,30.5 µM
same,TGI,NCI/ADR-RES ovarian,> 100 µM
same,GI50,OVCAR-3 ovarian,19.4 µM
same,TGI,OVCAR-3 ovarian,43.7 µM
same,GI50,HL-60(TB) leukemia,2.09 µM
same,TGI,HL-60(TB) leukemia,5.97 µM
same,GI50,M14 melanoma,11.6 µM
same,TGI,M14 melanoma,36 µM
same,GI50,SW-620 colon,10.5 µM
same,TGI,SW-620 colon,56.1 µM
same,GI50,RXF 393 renal,14.9 µM
same,TGI,RXF 393 renal,40.6 µM
same,GI50,KM12 colon,35.5 µM
same,TGI,KM12 colon,> 100 µM
same,GI50,SR leukemia,2.85 µM
same,TGI,SR leukemia,12.6 µM
same,GI50,HOP-92 NSCLC,19 µM
same,TGI,HOP-92 NSCLC,59.8 µM
